Calls of active or inactive are those of the source.
Experiments:
[1] = target: Ras and Rab interactor 1/Tyrosine-protein kinase ABL1 (Homo sapiens, UniProt P00519+Q13671); type: functional;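 further: biochemical TR-FRET dose-response test measuring inhibition of binding between Rin1 and Abl proteins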
[2] = bead-based luminescence quenchers, dual-tagged ARNT – biochemical, AlphaScreen, cherry-pick, artefact control for ARNT-TACC3 interaction inhibitor project, dose response (AID 651705); type: functional;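 further: AlphaScreen bead proximity signal that flags compounds interfering with the detection technology; potency reflects signal decrease which marks the compound as an assay artifact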
[3] = target: Tyrosine-protein phosphatase non-receptor type 11 (Homo sapiens, UniProt Q06124); test: PTPN11 enzyme inhibitors – biochemical, selectivity assay for STEP inhibitor project, dose response (AID 602367); type: functional; settings: read-out: IC50_Mean
[4] = target: Tyrosine-protein phosphatase non-receptor type 5 (Homo sapiens, UniProt P54829); test: PTPN5 enzyme inhibition – biochemical, fluorescence intensity, uHTS hits, confirmation (AID 602372); type: functional; settings: read-out: IC50_Mean
[5] = target: Cytochrome P450 2D6 (Homo sapiens, UniProt P10635);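 further: CYP2D6 member of a cytochrome P450 panel assay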
[6] = target: Dual specificity protein phosphatase 3 (Homo sapiens, UniProt P51452); test: VHR phosphatase inhibition, dose response, selectivity assay for STEP inhibitor project, biochemical (AID 602374); type: functional; settings: read-out: IC50_Mean
[7] = target: Melanocortin receptor 4 (Homo sapiens, UniProt P32245); type: functional, cell-based;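 further: Cell-based assay with luminescence read-out, confirmatory dose-response testing for agonist activity of biased ligands at MC4R; human U2OS cells with tagged receptor and beta-arrestin; potency of agonists that increase receptor coupling to beta-arrestin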
[8] = target: T1, Sentrin-specific protease 8 (Homo sapiens, UniProt Q96LD8); type: functional
T1 sequence (Q96LD8 whole entry): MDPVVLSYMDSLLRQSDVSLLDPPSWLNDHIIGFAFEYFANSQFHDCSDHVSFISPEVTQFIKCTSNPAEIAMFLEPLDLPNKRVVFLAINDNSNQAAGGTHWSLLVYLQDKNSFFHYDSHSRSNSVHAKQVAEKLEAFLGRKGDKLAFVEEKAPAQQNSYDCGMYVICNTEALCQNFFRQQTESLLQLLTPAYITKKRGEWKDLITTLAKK

[9] = target: T1, Sentrin-specific protease 8; type: functional; remark: listed apart in the source
[10] = target: T2, Sentrin-specific protease 1 (Homo sapiens, UniProt Q9P0U3); test: Dose response confirmation of small molecule inhibitors of the catalytic domain of the SUMO protease, SENP1 in a FRET assay.; type: functional; settings: read-out: IC50_Mean
T2 sequence (Q9P0U3 whole entry): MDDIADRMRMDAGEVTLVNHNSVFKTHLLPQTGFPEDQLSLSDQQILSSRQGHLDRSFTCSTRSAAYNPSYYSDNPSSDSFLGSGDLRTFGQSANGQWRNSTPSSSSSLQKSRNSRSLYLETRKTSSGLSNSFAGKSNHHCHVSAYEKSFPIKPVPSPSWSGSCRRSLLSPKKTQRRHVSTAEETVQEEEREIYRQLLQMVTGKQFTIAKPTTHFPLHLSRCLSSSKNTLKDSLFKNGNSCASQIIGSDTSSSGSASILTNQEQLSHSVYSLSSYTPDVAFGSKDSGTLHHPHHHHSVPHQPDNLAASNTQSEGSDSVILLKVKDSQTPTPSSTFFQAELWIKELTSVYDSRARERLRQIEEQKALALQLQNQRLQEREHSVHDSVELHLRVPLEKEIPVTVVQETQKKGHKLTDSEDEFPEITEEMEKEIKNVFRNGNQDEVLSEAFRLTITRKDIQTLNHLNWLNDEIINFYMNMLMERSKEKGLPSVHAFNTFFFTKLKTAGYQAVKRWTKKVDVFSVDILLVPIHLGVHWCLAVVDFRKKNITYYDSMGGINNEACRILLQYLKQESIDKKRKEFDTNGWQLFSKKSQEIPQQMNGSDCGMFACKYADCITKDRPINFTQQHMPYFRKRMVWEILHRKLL

[11] = target: T2, Sentrin-specific protease 1; test: SENP1 catalytic domain blockers, concentration series – biochemical, kinetic FRET, dose response (AID 651697); type: functional; settings: read-out: IC50_Mean
[12] = blockers of CRF-binding protein–CRF-R2 complex – cell-based, uHTS hits, 384-well, dose response (AID 651639); type: functional, Homo sapiens; settings: read-out: IC50_Mean
[13] = target: T3, Corticotropin-releasing factor receptor 2/Corticotropin-releasing factor-binding protein (Homo sapiens, UniProt P24387+Q13324); test: activators of CRF receptor 2 with binding protein – uHTS hits, confirmation (AID 602473); type: functional; settings: read-out: EC50_Mean
T3 sequence (Q13324 whole entry): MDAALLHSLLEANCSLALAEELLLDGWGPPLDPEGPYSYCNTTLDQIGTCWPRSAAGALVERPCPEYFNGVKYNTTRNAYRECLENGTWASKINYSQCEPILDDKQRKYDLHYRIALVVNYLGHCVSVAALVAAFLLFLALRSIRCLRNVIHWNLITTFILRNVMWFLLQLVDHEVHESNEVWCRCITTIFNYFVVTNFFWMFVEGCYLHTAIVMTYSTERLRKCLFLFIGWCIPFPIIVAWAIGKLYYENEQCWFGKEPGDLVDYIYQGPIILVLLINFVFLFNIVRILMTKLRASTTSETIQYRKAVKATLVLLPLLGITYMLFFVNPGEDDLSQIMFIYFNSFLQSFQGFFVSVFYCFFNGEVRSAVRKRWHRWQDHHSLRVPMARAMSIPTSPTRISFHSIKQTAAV
T3 sequence (P24387 whole entry): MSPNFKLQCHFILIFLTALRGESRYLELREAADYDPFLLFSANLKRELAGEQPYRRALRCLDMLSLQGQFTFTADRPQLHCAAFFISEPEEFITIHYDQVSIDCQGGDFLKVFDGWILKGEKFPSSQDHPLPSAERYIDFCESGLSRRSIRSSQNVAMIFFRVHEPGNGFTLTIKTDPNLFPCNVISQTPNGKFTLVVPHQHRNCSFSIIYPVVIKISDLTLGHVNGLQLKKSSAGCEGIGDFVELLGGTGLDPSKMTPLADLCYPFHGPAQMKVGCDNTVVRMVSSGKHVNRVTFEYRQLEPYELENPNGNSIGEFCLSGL

[14] = target: T3, Corticotropin-releasing factor receptor 2/Corticotropin-releasing factor-binding protein; test: Dose Response confirmation of uHTS hits for small molecule antagonists of the CRF-binding protein and CRF-R2 receptor complex.; type: functional; settings: read-out: IC50_Mean
[15] = target: Cytochrome P450 3A4 (Homo sapiens, UniProt P08684); settings: Potency;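 further: confirmatory qHTS run detecting inhibitors and substrates of CYP3A4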
[16] = target: T4, DNA repair and recombination protein RAD54-like (Homo sapiens, UniProt Q92698); test: RAD54 Holliday junction migration blockers – biochemical, fluorescence, cherry-picked samples, dose series, confirmation (AID 651657); type: functional
T4 sequence (Q92698 whole entry): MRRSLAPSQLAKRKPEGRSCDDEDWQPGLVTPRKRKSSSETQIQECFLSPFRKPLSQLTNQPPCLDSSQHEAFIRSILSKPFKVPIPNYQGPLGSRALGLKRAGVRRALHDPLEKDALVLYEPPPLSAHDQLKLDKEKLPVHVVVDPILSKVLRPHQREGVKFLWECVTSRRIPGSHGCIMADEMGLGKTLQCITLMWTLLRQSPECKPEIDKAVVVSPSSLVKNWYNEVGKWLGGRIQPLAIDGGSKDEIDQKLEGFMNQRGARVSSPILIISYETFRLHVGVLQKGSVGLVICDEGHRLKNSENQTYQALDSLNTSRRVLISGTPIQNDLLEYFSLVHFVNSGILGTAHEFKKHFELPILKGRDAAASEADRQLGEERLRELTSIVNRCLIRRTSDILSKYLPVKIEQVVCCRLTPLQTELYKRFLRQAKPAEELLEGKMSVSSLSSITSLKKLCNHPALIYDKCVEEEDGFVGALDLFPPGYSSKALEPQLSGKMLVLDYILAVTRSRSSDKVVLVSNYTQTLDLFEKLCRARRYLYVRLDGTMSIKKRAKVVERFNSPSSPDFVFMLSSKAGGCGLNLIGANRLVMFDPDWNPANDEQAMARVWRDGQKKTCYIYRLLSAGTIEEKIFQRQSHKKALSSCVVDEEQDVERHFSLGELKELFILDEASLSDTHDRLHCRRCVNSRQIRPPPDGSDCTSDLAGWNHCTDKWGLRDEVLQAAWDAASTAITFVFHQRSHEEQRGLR

[17] = cytotoxicity toward MDA-MB-231 breast cancer cells – cell-based, CellTiter-Glo luminescence, cherry-pick, cytotoxicity control for RAD54 inhibitor project, dose response (AID 651692); type: functional
[18] = target: T5, DNA repair protein RAD52 homolog (Homo sapiens, UniProt P43351); type: functional, biochemical
T5 sequence (P43351 whole entry): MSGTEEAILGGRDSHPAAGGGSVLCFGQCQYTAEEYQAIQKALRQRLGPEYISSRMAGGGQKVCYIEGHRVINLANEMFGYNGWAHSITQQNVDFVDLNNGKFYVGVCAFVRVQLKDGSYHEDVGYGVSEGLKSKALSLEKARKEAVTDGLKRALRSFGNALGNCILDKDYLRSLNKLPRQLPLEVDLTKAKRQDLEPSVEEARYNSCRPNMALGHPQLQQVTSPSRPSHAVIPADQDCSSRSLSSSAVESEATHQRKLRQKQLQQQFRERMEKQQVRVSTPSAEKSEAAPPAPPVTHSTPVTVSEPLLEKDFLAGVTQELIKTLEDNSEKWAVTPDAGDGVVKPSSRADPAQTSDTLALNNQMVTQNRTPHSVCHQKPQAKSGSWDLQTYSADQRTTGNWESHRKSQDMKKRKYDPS

[19] = Trypanosoma cruzi growth suppression in host cells – NIH3T3 host cells, beta-gal luminescence, confirmation (AID 2044); type: functional, cell-based;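 further: intracellular parasites grown in NIH/3T3 mouse fibroblasts as host cells; luminescent beta-galactosidase reporter signal from transgenic T. cruzi replicating inside host cells; inhibitors lower the luminescence signal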
[20] = NIH3T3 cell viability loss – ATP luminescence, mouse fibroblasts, counter-screen, dose response (AID 2010); type: functional, cell-based;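 further: cells exposed to compound for about 90 hours before reading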
[21] = target: T6, Ubiquitin-conjugating enzyme E2 N (Homo sapiens, UniProt P61088); type: functional;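 further: Dose-response confirmation in a TR-FRET assay detecting UBC13-driven polyubiquitin chain formation, inhibition measured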
T6 sequence (P61088 whole entry): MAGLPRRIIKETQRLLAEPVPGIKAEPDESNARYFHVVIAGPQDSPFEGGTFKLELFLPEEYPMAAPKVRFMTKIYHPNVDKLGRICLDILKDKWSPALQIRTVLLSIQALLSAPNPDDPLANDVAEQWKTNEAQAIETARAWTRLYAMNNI

[22] = target: T7, Microphthalmia-associated transcription factor (Homo sapiens, UniProt O75030); test: reducers of TRPM1 reporter luminescence, concentration series – cell-based, SK-MEL-5, cherry-picked, set 3, MITF inhibitor project, dose response (AID 493073); type: functional;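 further: SK-MEL-5 melanoma cells with luciferase driven by the MITF target TRPM1 promoter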
T7 sequence (O75030 whole entry): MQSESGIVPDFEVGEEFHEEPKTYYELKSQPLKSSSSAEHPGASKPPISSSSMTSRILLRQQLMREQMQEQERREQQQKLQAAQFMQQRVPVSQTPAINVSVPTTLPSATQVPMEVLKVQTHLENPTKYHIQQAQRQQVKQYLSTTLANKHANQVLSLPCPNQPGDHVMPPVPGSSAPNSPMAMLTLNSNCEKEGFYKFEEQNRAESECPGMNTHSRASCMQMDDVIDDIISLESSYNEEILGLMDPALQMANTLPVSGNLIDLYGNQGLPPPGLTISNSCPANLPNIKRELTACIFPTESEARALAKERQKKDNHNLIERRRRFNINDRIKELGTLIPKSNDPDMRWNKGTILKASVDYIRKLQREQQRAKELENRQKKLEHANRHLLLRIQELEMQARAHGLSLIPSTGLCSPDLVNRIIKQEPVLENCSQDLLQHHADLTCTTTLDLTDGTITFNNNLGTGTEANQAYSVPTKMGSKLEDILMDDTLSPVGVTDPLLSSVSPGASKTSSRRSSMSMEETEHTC

[23] = system: A-375; test: MITF: Counter assay: A375 proliferation Measured in Cell-Based System Using Plate Reader - 2084-03_Inhibitor_Dose_DryPowder_Activity. [Related pubchem assays (depositor defined):AID488944]; type: functional; settings: Homo sapiens

Melanocortin receptor 4, sequence (P32245 whole entry): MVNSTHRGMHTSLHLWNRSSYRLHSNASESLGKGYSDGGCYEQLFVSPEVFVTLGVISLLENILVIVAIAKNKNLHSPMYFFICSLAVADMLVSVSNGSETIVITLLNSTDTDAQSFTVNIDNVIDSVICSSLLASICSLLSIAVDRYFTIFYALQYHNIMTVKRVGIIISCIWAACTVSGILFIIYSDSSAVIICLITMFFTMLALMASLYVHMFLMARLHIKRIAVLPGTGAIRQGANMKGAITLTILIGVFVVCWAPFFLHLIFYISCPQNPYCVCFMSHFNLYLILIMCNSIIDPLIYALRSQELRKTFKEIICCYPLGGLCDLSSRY
Ras and Rab interactor 1/Tyrosine-protein kinase ABL1, sequence (P00519 whole entry): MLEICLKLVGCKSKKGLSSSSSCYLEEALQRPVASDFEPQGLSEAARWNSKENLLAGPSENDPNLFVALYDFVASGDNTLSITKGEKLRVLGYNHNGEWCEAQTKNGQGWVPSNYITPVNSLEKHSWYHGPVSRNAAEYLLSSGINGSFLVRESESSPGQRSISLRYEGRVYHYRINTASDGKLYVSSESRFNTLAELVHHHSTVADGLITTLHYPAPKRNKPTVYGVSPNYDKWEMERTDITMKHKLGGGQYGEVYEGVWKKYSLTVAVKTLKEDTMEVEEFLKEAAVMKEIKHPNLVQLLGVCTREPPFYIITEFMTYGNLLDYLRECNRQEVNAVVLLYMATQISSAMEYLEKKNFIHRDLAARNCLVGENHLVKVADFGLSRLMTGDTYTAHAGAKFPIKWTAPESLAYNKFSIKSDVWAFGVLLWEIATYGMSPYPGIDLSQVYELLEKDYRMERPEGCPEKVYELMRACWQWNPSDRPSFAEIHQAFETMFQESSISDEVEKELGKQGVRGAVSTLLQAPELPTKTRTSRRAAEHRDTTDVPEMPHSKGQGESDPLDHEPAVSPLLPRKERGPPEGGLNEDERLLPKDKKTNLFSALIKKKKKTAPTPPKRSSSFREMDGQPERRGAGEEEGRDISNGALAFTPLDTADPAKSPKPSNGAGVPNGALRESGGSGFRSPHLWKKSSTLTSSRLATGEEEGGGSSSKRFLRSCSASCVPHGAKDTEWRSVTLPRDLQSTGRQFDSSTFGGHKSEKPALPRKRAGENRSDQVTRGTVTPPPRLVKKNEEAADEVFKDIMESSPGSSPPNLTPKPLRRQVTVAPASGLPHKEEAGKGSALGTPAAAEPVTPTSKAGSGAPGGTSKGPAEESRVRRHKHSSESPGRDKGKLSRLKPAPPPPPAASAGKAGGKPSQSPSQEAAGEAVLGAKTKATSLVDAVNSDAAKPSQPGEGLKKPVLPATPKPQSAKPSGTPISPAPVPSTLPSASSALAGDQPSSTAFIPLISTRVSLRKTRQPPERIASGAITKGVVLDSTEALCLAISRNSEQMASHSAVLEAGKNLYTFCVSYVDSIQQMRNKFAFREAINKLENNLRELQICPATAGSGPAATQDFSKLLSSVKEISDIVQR
Ras and Rab interactor 1/Tyrosine-protein kinase ABL1, sequence (Q13671 whole entry): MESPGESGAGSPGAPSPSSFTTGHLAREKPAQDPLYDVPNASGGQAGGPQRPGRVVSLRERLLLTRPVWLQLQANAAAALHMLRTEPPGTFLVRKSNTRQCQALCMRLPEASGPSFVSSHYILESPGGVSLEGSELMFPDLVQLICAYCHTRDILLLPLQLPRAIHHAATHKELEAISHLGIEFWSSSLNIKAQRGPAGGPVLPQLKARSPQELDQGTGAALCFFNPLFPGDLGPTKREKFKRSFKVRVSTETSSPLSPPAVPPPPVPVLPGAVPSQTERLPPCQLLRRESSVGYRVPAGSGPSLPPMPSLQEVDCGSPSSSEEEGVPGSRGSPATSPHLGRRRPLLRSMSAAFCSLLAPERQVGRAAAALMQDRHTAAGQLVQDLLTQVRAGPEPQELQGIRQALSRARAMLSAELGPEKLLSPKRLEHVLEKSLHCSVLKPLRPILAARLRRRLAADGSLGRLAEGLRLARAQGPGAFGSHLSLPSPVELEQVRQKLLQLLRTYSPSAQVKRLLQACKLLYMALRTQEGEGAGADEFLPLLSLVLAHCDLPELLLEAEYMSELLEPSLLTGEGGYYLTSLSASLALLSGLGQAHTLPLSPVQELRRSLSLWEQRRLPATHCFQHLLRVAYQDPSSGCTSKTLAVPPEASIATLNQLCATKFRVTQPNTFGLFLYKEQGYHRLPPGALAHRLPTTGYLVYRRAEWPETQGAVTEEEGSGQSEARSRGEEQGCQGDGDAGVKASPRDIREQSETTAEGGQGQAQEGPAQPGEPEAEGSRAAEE
Cytochrome P450 2D6, sequence (P10635 whole entry): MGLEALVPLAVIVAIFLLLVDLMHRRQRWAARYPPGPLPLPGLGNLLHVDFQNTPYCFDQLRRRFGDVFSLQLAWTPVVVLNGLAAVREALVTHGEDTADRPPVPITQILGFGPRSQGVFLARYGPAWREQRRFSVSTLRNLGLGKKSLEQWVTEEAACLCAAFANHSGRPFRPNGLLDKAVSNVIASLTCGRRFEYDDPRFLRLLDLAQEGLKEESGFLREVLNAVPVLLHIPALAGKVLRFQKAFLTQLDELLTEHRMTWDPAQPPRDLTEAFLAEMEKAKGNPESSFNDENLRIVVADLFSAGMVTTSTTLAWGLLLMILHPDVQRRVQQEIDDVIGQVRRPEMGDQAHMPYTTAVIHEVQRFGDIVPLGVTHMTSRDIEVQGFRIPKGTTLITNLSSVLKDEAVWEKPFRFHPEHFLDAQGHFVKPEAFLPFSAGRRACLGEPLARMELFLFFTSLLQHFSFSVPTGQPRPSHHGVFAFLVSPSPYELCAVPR
Dual specificity protein phosphatase 3, sequence (P51452 whole entry): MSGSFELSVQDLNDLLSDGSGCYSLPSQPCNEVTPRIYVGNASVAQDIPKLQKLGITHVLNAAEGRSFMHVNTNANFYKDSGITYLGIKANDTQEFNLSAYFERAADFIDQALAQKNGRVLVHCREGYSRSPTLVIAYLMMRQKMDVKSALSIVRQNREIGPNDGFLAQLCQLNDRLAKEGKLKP
Cytochrome P450 3A4, sequence (P08684 whole entry): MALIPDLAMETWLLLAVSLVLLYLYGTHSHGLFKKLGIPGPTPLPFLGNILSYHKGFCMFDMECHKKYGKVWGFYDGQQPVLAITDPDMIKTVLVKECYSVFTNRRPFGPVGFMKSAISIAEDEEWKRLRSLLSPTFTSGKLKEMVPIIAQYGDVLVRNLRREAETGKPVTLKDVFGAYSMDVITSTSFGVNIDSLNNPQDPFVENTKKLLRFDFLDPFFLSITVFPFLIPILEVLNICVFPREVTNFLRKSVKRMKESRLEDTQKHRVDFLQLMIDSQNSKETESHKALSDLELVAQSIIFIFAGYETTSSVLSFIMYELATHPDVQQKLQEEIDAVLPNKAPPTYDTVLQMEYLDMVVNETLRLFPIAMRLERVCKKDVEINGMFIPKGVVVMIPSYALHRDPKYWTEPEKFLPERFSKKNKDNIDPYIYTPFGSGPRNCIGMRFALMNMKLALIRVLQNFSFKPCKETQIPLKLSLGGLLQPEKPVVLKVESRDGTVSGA
Tyrosine-protein phosphatase non-receptor type 5, sequence (P54829 whole entry): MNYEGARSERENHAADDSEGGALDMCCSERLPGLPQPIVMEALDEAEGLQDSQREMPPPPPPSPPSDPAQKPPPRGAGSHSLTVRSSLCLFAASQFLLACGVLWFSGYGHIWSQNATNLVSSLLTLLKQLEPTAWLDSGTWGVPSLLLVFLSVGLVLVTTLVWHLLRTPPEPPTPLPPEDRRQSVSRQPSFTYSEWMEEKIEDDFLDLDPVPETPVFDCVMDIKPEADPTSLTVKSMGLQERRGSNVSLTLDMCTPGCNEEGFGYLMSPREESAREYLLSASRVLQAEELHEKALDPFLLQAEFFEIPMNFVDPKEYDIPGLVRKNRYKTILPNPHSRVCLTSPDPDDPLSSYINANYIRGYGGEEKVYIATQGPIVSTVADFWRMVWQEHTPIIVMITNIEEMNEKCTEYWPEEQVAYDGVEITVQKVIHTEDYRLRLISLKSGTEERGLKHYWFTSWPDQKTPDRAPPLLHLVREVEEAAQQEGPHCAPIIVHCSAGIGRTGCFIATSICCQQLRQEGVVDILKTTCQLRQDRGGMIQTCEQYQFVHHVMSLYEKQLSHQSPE
Tyrosine-protein phosphatase non-receptor type 11, sequence (Q06124 whole entry): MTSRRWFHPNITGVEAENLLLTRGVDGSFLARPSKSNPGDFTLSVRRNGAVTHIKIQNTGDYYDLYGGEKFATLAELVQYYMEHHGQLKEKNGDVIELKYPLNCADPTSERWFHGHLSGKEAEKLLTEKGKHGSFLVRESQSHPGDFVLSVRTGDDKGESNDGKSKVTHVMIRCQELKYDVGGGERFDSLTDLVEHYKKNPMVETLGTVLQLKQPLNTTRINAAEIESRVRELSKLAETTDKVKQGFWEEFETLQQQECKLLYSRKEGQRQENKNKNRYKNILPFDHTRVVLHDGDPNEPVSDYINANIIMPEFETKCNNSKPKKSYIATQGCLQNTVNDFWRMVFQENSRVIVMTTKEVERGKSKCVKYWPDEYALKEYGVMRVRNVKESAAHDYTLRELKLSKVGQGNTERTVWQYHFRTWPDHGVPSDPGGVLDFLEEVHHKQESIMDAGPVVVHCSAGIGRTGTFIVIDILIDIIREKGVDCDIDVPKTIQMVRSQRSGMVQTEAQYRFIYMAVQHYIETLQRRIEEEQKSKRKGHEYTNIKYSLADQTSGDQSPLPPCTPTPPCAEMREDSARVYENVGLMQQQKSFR

O=C(Cc1ccc(NC(=O)C2CCN(C(=O)C3CCC3)CC2)cc1)Nc1ccc(C(=O)N2CCOCC2)cc1
IC50 [1]: 16.5 µM (inactive)

Cc1nnc(NC(=O)c2ccc(S(=O)(=O)N3CC(C)OC(C)C3)cc2)o1 (centres undefined)
AC50 [2]: 122 µM (active)

OCCN1CCN(C(=S)c2ccc(Br)cc2)CC1
IC50 [3]: 3.34 µM (active) | IC50 [4]: 20.1 µM (inactive) | AC50 [5]: 0.0224 µM (inconclusive) | IC50 [6]: 1.3 µM (active)

COc1cccc(-c2cnc3c(NC=O)cc(-c4ccoc4)cn23)c1
EC50 [7]: > 89.2 µM (inactive)

COc1ccc(C(=O)N2C=Cc3ccccc3C2C#N)cc1 (centres undefined)
IC50 [8]: > 100 µM (inactive) | IC50 [9]: 5.74 µM (active)

Cc1c(N2C(=O)/C(=C/c3ccc(N(C)C)cc3)N(C)C2=S)c(=O)n(-c2ccccc2)n1C
IC50 [10]: 36.2 µM (inactive) | IC50 [11]: 19.5 µM (active)

Oc1cc(Cl)c(Cl)c(Cl)c1
IC50 [12]: > 20 µM (inactive) | EC50 [13]: > 53 µM (inactive) | IC50 [14]: 9.09 µM (active) | AC50 [15]: 12.6 µM (inconclusive)

Cc1ccc(N(C(=O)c2nsc(Cl)c2Cl)C(C(=O)NC2CCCC2)c2ccc(O)cc2)cc1C (centres undefined)
IC50 [12]: > 20 µM (inactive) | EC50 [13]: > 53 µM (inactive) | IC50 [14]: 5.91 µM (active)

CCN(CC)CCCN(C(=O)c1ccco1)c1nc(-c2ccc(Cl)cc2)cs1
AC50 [16]: 45.1 µM (active) | AC50 [17]: 22.9 µM (active) | AC50 [18]: 19.2 µM (active) | EC50 [19]: 0.87 µM (active) | EC50 [20]: 9.32 µM (active)

CCCCCCCNC(=O)C1(CC2CC(c3ccc(Cl)cc3)=NO2)CCNCC1 (centres undefined)
IC50 [21]: > 20 µM (inactive) | AC50 [22]: 14 µM (active) | EC50 [7]: > 89.2 µM (inactive) | AC50 [23]: 19.9 µM (active)

NNc1ccc(S(=O)(=O)N2CCCCC2)cn1
AC50 [2]: 87.7 µM (active)

COc1ccc(Cl)cc1NC(=O)CN(C)C(=O)c1cc(-c2ccncc2)nc2ccccc12
IC50 [1]: 1.86 µM (active)

Reference: ChEMBL document CHEMBL1201862, “PubChem BioAssay data set” (2004)
